Data reported in patent US12648924B2, “Prevention and treatment of effects of aging and age-associated disorders with ketone supplementation” (priority 2020, dated 2026).
“Also recorded” adds a separate entry of the source.

Test: Blood metabolites after 4-day transition to standard diet supplemented with KDE (Experiment 4a)
Assay type: in vivo, VM/Dk mice
Conditions: for blood ketone levels: vs baseline
Text: Food Intake and Ketone Diester Administration: Standard diet dry food (2018 Teklad Global 18% Protein Rodent Diet, Harlan) was mixed with deionized water (1 g dry food/mL deionized water) into a consistent paste and placed on a 100×15 mm dish. Food intake was tracked daily at the same time (7:00-9:00) and replaced every other day to ensure fresh food. Due to sinusoidal/oscillatory changes in food intake observed every other day (2-day pattern), a 4-day (2×2-day pattern) average was taken at EOL and baseline to calculate changes in anorexic symptoms. KDE was chemically synthesized with physical properties, preparation, and analysis described previously. For evaluation of KDE effect on anorexia, food intake was tracked daily at the same time (7:00-9:00). […] Consequently, upon VM-M3 inoculation, KDE+VM-M3 received ad libitum 0% KDE/weight day 1, 5% KDE day 2, 10% KDE day 3, 15% KDE day 4, 20% KDE day 5, 25% KDE day 6, and 30% KDE day 7 through 21 on top of HPSD. VM-M3 and Sham received HPSD ad libitum. As pilot work indicated potential water evaporation in food paste in ventilated cages, dehydration standard curve was calculated across various volumes of plated food (5, 10, 25.0, 50.0, 100 g/food) with and without KDE over a two-day period. Standard curve equation [water evaporated=0.2472 (original grams of water)+1.364] was used to correct for amount of dehydration prior to calculating caloric intake. For LPS experiments, 1×4 mL/kg KDE gavage or 1×4 mL/kg water gavage were administered for KDE+LPS and LPS-only, respectively. Ab libitum food intake was tracked daily during initial analysis with caloric restriction reported as the percent reduction in 24-hour caloric intake from pre- to post-LPS administration. Pair-feeding was conducted during subsequent analysis. […]
Metabolic Biomarkers: Blood glucose and R β-hydroxybutyrate were measured using Precision Xtra™ Blood Glucose & Ketone Monitoring System (Abbott Laboratories, Abbott Park, IL). Blood lactate concentration was measured using Lactate Plus Lactate Meter (Nova Biomedical). IGF-1 and Insulin were relabeled for blinded analysis and subsequently analyzed using Luminex 100 system (Luminex, Austin, TX) with R&D Systems Mouse 1-Plex Luminex Assay (R&D Systems, Minneapolis, MN) and Milliplex Mouse Multiplex Kit (Millipore, St. Charles, MO), respectively, using manufacturer's protocol.
To determine whether KDE could alter systemic metabolism, blood metabolites were measured at baseline following a standard diet and after a 4-day transition to a standard diet supplemented with 20% KDE, 25% KDE, or 30% KDE. […] To determine whether KDE could alter metabolism in CACS, blood ketones, glucose, and lactate were measured weekly. […] Thus, to determine if KDE altered tumor burden, in vivo bioluminescence imaging was analyzed weekly.

Structure (SMILES): CC(=O)CC(=O)OCCC(C)OC(=O)CC(C)=O (stereo not shown) [KDE, R/S 1,3-butanediol acetoacetate diester]
- blood ketone levels (20% KDE in standard diet, 4-day transition): significant elevations
- blood ketone levels (30% KDE in standard diet, 4-day transition): significant elevations; also recorded: highest ketone elevations
- blood glucose levels (30% KDE in standard diet, compared with 20% and 25% KDE): greatest reduction in glucose
- blood glucose levels (all KDE groups (20%, 25%, 30% KDE in standard diet), 4-day transition): significant reductions
